Source: patent US20260027116A1, “Methods of Treating Chronic Graft-Versus-Host Disease Following Allogeneic Hematopoietic Stem Cell Transplantation” (Kadmon Corporation, LLC, priority 2022, published 2026)

System: patients with cGVHD

CC(C)NC(=O)COc1cccc(-c2nc(Nc3ccc4[nH]ncc4c3)c3ccccc3n2)c1 [Belumosudil, 2-{3-[4-(1H-indazol-5-ylamino)-2-quinazolinyl]phenoxy}-N-(propan-2-yl) acetamide]
1/16 (6.25%): Urinary retention: Affected/At Risk (%) (Cohort 2 200 mg BID) | Urinary tract pain: Affected/At Risk (%) (Cohort 2 200 mg BID) | Urine output decreased: Affected/At Risk (%) (Cohort 2 200 mg BID) | Vascular access complication: Affected/At Risk (%) (Cohort 2 200 mg BID) | Weight increased: Affected/At Risk (%) (Cohort 2 200 mg BID)
2/16 (12.5%): Urinary tract infection: Affected/At Risk (%) (Cohort 2 200 mg BID) | Vision blurred: Affected/At Risk (%) (Cohort 2 200 mg BID)
1/21 (4.76%): Abdominal distension: Affected/At Risk (%) (Cohort 3 400 mg QD) | Actinic keratosis: Affected/At Risk (%) (Cohort 3 400 mg QD) | Aspartate aminotransferase increased: Affected/At Risk (%) (Cohort 3 400 mg QD) | Back pain: Affected/At Risk (%) (Cohort 3 400 mg QD) | Blepharitis: Affected/At Risk (%) (Cohort 3 400 mg QD) | Blister: Affected/At Risk (%) (Cohort 3 400 mg QD) | Blood cholesterol increased: Affected/At Risk (%) (Cohort 3 400 mg QD) | Bronchitis: Affected/At Risk (%) (Cohort 3 400 mg QD) | Conjunctival haemorrhage: Affected/At Risk (%) (Cohort 3 400 mg QD) | Dry skin: Affected/At Risk (%) (Cohort 3 400 mg QD) | Dyspepsia: Affected/At Risk (%) (Cohort 3 400 mg QD) | Embolism: Affected/At Risk (%) (Cohort 3 400 mg QD) | Fall: Affected/At Risk (%) (Cohort 3 400 mg QD) | Flatulence: Affected/At Risk (%) (Cohort 3 400 mg QD)
6: Abdominal pain: # Events (Cohort 3 400 mg QD) | Acute kidney injury: # Events (Cohort 3 400 mg QD) | Arthralgia: # Events (Cohort 3 400 mg QD) | Dyspnoea: # Events (Cohort 3 400 mg QD)
8 (38): All grade Nausea, No. (%) (Cohort 3 400 mg QD)
7 (33): All grade Cough, No. (%) (Cohort 3 400 mg QD) | All grade Diarrhea, No. (%) (Cohort 3 400 mg QD) | All grade Dyspnea, No. (%) (Cohort 3 400 mg QD) | All grade URI, No. (%) (Cohort 3 400 mg QD)
1: Urinary tract pain: # Events (Cohort 2 200 mg BID) | Urine output decreased: # Events (Cohort 2 200 mg BID) | Vascular access complication: # Events (Cohort 2 200 mg BID) | Abdominal distension: # Events (Cohort 3 400 mg QD) | Actinic keratosis: # Events (Cohort 3 400 mg QD) | Aspartate aminotransferase increased: # Events (Cohort 3 400 mg QD) | Back pain: # Events (Cohort 3 400 mg QD) | Blister: # Events (Cohort 3 400 mg QD) | Blood cholesterol increased: # Events (Cohort 3 400 mg QD) | Bronchitis: # Events (Cohort 3 400 mg QD) | Conjunctival haemorrhage: # Events (Cohort 3 400 mg QD) | Dry skin: # Events (Cohort 3 400 mg QD) | Dyspepsia: # Events (Cohort 3 400 mg QD) | Embolism: # Events (Cohort 3 400 mg QD) | Fall: # Events (Cohort 3 400 mg QD) | Flatulence: # Events (Cohort 3 400 mg QD)
0/16 (0%): Vertigo: Affected/At Risk (%) (Cohort 2 200 mg BID) | Weight decreased: Affected/At Risk (%) (Cohort 2 200 mg BID) | White blood cell count decreased: Affected/At Risk (%) (Cohort 2 200 mg BID)
16 (100): Any AE, No. (%) (Cohort 3 400 mg QD)
4: Constipation: # Events (Cohort 3 400 mg QD) | Contusion: # Events (Cohort 3 400 mg QD) | Decreased appetite: # Events (Cohort 3 400 mg QD)
5/21 (23.81%): Arthralgia: Affected/At Risk (%) (Cohort 3 400 mg QD)
14 (67): Drug-related AE, No. (%) (Cohort 3 400 mg QD)
2 (10): All grade ALT/AST increased, No. (%) (Cohort 3 400 mg QD) | Death, No. (%) (Cohort 3 400 mg QD)
4 (19): All grade Hypertension, No. (%) (Cohort 3 400 mg QD)
3/16 (18.75%): Vomiting: Affected/At Risk (%) (Cohort 2 200 mg BID)
3/21 (14.29%): Anxiety: Affected/At Risk (%) (Cohort 3 400 mg QD) | Conjunctivitis: Affected/At Risk (%) (Cohort 3 400 mg QD) | Constipation: Affected/At Risk (%) (Cohort 3 400 mg QD) | Contusion: Affected/At Risk (%) (Cohort 3 400 mg QD) | Depression: Affected/At Risk (%) (Cohort 3 400 mg QD)
11: Diarrhoea: # Events (Cohort 3 400 mg QD)
7/21 (33.33%): Cough: Affected/At Risk (%) (Cohort 3 400 mg QD) | Diarrhoea: Affected/At Risk (%) (Cohort 3 400 mg QD)
9: Cough: # Events (Cohort 3 400 mg QD)
14: Fatigue: # Events (Cohort 3 400 mg QD)
0/21 (0%): Abdominal pain upper: Affected/At Risk (%) (Cohort 3 400 mg QD) | Acute respiratory distress syndrome: Affected/At Risk (%) (Cohort 3 400 mg QD) | Adrenal insufficiency: Affected/At Risk (%) (Cohort 3 400 mg QD) | Anaemia: Affected/At Risk (%) (Cohort 3 400 mg QD) | Anal incontinence: Affected/At Risk (%) (Cohort 3 400 mg QD) | Asthenia: Affected/At Risk (%) (Cohort 3 400 mg QD) | Atelectasis: Affected/At Risk (%) (Cohort 3 400 mg QD) | Balance disorder: Affected/At Risk (%) (Cohort 3 400 mg QD) | Basal cell carcinoma: Affected/At Risk (%) (Cohort 3 400 mg QD) | Benign prostatic hyperplasia: Affected/At Risk (%) (Cohort 3 400 mg QD) | Blood alkaline phosphatase increased: Affected/At Risk (%) (Cohort 3 400 mg QD) | Blood chloride decreased: Affected/At Risk (%) (Cohort 3 400 mg QD) | Blood creatine increased: Affected/At Risk (%) (Cohort 3 400 mg QD) | Blood creatine phosphokinase increased: Affected/At Risk (%) (Cohort 3 400 mg QD) | Blood loss anaemia: Affected/At Risk (%) (Cohort 3 400 mg QD) | Bronchial secretion retention: Affected/At Risk (%) (Cohort 3 400 mg QD) | Bronchoscopy: Affected/At Risk (%) (Cohort 3 400 mg QD) | Catheter site haemorrhage: Affected/At Risk (%) (Cohort 3 400 mg QD) | Chills: Affected/At Risk (%) (Cohort 3 400 mg QD) | Chronic kidney disease: Affected/At Risk (%) (Cohort 3 400 mg QD) | Contrast media allergy: Affected/At Risk (%) (Cohort 3 400 mg QD) | Corneal abrasion: Affected/At Risk (%) (Cohort 3 400 mg QD) | Corneal infection: Affected/At Risk (%) (Cohort 3 400 mg QD) | Drug eruption: Affected/At Risk (%) (Cohort 3 400 mg QD) | Dyspnoea exertional: Affected/At Risk (%) (Cohort 3 400 mg QD) | Enamel anomaly: Affected/At Risk (%) (Cohort 3 400 mg QD) | Epidural lipomatosis: Affected/At Risk (%) (Cohort 3 400 mg QD) | Epstein-Barr virus infection: Affected/At Risk (%) (Cohort 3 400 mg QD) | Erectile dysfunction: Affected/At Risk (%) (Cohort 3 400 mg QD) | Eye irritation: Affected/At Risk (%) (Cohort 3 400 mg QD) | Eye pain: Affected/At Risk (%) (Cohort 3 400 mg QD) | Eye pruritus: Affected/At Risk (%) (Cohort 3 400 mg QD) | Flushing: Affected/At Risk (%) (Cohort 3 400 mg QD)
3: Vomiting: # Events (Cohort 2 200 mg BID) | Anxiety: # Events (Cohort 3 400 mg QD) | Conjunctivitis: # Events (Cohort 3 400 mg QD) | Depression: # Events (Cohort 3 400 mg QD) | Dysphagia: # Events (Cohort 3 400 mg QD)
6/21 (28.57%): Dyspnoea: Affected/At Risk (%) (Cohort 3 400 mg QD)
0: Vertigo: # Events (Cohort 2 200 mg BID) | Weight decreased: # Events (Cohort 2 200 mg BID) | White blood cell count decreased: # Events (Cohort 2 200 mg BID) | Abdominal pain upper: # Events (Cohort 3 400 mg QD) | Acute respiratory distress syndrome: # Events (Cohort 3 400 mg QD) | Adrenal insufficiency: # Events (Cohort 3 400 mg QD) | Anaemia: # Events (Cohort 3 400 mg QD) | Anal incontinence: # Events (Cohort 3 400 mg QD) | Asthenia: # Events (Cohort 3 400 mg QD) | Atelectasis: # Events (Cohort 3 400 mg QD) | Balance disorder: # Events (Cohort 3 400 mg QD) | Basal cell carcinoma: # Events (Cohort 3 400 mg QD) | Benign prostatic hyperplasia: # Events (Cohort 3 400 mg QD) | Blood alkaline phosphatase increased: # Events (Cohort 3 400 mg QD) | Blood chloride decreased: # Events (Cohort 3 400 mg QD) | Blood creatine increased: # Events (Cohort 3 400 mg QD) | Blood creatine phosphokinase increased: # Events (Cohort 3 400 mg QD) | Blood loss anaemia: # Events (Cohort 3 400 mg QD) | Bronchial secretion retention: # Events (Cohort 3 400 mg QD) | Bronchoscopy: # Events (Cohort 3 400 mg QD) | Catheter site haemorrhage: # Events (Cohort 3 400 mg QD) | Chills: # Events (Cohort 3 400 mg QD) | Chronic kidney disease: # Events (Cohort 3 400 mg QD) | Contrast media allergy: # Events (Cohort 3 400 mg QD) | Corneal abrasion: # Events (Cohort 3 400 mg QD) | Corneal infection: # Events (Cohort 3 400 mg QD) | Drug eruption: # Events (Cohort 3 400 mg QD) | Drug-related SAE, No. (%) (Cohort 3 400 mg QD) | Dyspnoea exertional: # Events (Cohort 3 400 mg QD) | Enamel anomaly: # Events (Cohort 3 400 mg QD) | Epidural lipomatosis: # Events (Cohort 3 400 mg QD) | Epstein-Barr virus infection: # Events (Cohort 3 400 mg QD) | Erectile dysfunction: # Events (Cohort 3 400 mg QD) | Eye irritation: # Events (Cohort 3 400 mg QD) | Eye pain: # Events (Cohort 3 400 mg QD) | Eye pruritus: # Events (Cohort 3 400 mg QD) | Flushing: # Events (Cohort 3 400 mg QD)
6 (29): All grade Headache, No. (%) (Cohort 3 400 mg QD) | All grade Peripheral edema, No. (%) (Cohort 3 400 mg QD)
3/21: All-Cause Mortality, Affected/At Risk (Cohort 3 400 mg QD)
4/21 (19.05%): Abdominal pain: Affected/At Risk (%) (Cohort 3 400 mg QD) | Decreased appetite: Affected/At Risk (%) (Cohort 3 400 mg QD)
2: Urinary tract infection: # Events (Cohort 2 200 mg BID) | Vision blurred: # Events (Cohort 2 200 mg BID) | Weight increased: # Events (Cohort 2 200 mg BID) | Alanine aminotransferase increased: # Events (Cohort 3 400 mg QD) | Blepharitis: # Events (Cohort 3 400 mg QD) | Blood creatinine increased: # Events (Cohort 3 400 mg QD) | Dehydration: # Events (Cohort 3 400 mg QD) | Dizziness: # Events (Cohort 3 400 mg QD) | Dry eye: # Events (Cohort 3 400 mg QD)
9 (43): All grade Fatigue, No. (%) (Cohort 3 400 mg QD)
10/21 (47.62%): Fatigue: Affected/At Risk (%) (Cohort 3 400 mg QD)
2/21 (9.52%): Acute kidney injury: Affected/At Risk (%) (Cohort 3 400 mg QD) | Alanine aminotransferase increased: Affected/At Risk (%) (Cohort 3 400 mg QD) | Blood creatinine increased: Affected/At Risk (%) (Cohort 3 400 mg QD) | Dehydration: Affected/At Risk (%) (Cohort 3 400 mg QD) | Dizziness: Affected/At Risk (%) (Cohort 3 400 mg QD) | Dry eye: Affected/At Risk (%) (Cohort 3 400 mg QD) | Dysphagia: Affected/At Risk (%) (Cohort 3 400 mg QD)
(14.29%): All-Cause Mortality, % (Cohort 3 400 mg QD)
